Measurements from patent publication US20110015226A1, “Treatment of Energy Utilization Disease” (SUMMIT CORPORATION PLC, priority 2008, published 2011).
Where “and” joins values, the source holds several entries; their conditions need not be identical. Equal entries are not always repeated. Where two headings read alike, the source gives them in different places.

What was measured:
α-D-glucosidase (Yeast) = target: T1, α-D-glucosidase (Yeast) (Saccharomyces cerevisiae, UniProt P53341); experiment: Glycosidase inhibition: α-D-glucosidase (Yeast); assay type: biochemical; details: compounds tested at 0.8 mM
T1 construct: purchased Sigma
T1 sequence (P53341 whole entry): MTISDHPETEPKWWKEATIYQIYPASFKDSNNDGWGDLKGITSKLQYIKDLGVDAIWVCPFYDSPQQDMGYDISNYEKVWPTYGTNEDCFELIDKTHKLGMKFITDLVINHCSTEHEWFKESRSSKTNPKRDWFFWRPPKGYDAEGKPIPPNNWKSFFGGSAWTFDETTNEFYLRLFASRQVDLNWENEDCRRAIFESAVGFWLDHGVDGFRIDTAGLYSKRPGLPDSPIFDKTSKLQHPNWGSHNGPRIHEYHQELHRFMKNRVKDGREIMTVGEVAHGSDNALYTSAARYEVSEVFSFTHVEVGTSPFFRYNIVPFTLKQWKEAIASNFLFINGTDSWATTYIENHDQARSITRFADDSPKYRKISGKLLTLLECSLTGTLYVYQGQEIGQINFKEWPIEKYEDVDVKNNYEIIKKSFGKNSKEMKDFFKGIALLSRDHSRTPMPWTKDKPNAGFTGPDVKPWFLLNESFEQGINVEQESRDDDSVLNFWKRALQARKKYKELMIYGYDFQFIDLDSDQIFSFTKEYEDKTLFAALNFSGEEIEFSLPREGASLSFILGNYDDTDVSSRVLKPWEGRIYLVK
Source text: (§1) The results tabulated below were obtained using commercially available glycosidases and p-nitrophenyl-substrates using standard methods described for example by Watson et al (1997) Phytochemistry 46 255-259. All enzymes and substrates were bought from Sigma. Enzyme and substrate solutions were made using sodium phosphate buffers at the pH optima values. The enzymes used were α-D-glucosidase Saccharomyces cerevisiae, Bacillus stearothermophilus, Oryzae sativa), β-D-glucosidase (Almond), α-D-mannosidase (Jack bean), α-D-galactosidase (Green coffee beans), β-D-galactosidase (Bovine liver), α-L-fucosidase (Bovine kidney), N-acetyl-β-D-glucosaminidase (Bovine kidney, Jack bean, Aspergillus oryzae), Naringinase (Penicillium decumbens) and amyloglucosidase (Aspergillus niger). All enzymes were used with the appropriate p-nitrophenyl substrates (5 mM). Amyloglucosidase activity was measured using amylopectin (0.1%) (Merck) mixed with sodium phosphate buffer, pH 4.5 in a glass bottle, and healed in a boiling water bath for 20 minutes to dissolve with released glucose measured using ‘Trinder’ glucose detection solution (Sigma).
(§2) All enzymes and para-nitrophenyl substrates were purchased from Sigma, with the exception of beta-mannosidase which came from Megazyme. Enzymes were assayed at 27° C. in 0.1M citric acid/0.2M disodium hydrogen phosphate buffers at the optimum pH for the enzyme. The incubation mixture consisted of 10 μl enzyme solution, 10 μl of 1 mg/ml aqueous solution of extract and 50 μl of the appropriate 5 mM para-nitrophenyl substrate made up in buffer at the optimum pH for the enzyme. The reactions were stopped by addition of 70 μl 0.4M glycine (pH 10.4) during the exponential phase of the reaction, which had been determined at the beginning using uninhibited assays in which water replaced inhibitor. Final absorbances were read at 405 nm using a Versamax microplate reader (Molecular Devices). Assays were carried out in triplicate, and the values given are means of the three replicates per assay. (See Watson, A. A., Nash, R. J., Wormald, M. R., Harvey, D. J., Dealler, S., Lees, E., Asano, N., Kizu, H., Kato, A., Griffiths, R. C., Cairns, A. J. and Fleet, G. W. J. (1997). Glycosidase-inhibiting pyrrolidine alkaloids from Hyacinthoides non-scripta. Phytochemistry 46 (2): 255-259.)

[1] = test system: N-acetyl-β-D-glucosaminidase (Bovine kidney); experiment: Glycosidase inhibition: N-acetyl-β-D-glucosaminidase (Bovine kidney); assay type: biochemical; details: for % inhibition, N-acetyl-β-D-glucosaminidase (Bovine kidney): compounds tested at 0.8 mM;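 as to all read-outs here: enzyme activity followed by cleavage of the matching p-nitrophenyl glycoside (5 mM) in phosphate buffer set to the enzyme's optimal pH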
β-D-glucosidase (Almond) = experiment: Glycosidase inhibition: β-D-glucosidase (Almond); assay type: biochemical; details: compounds tested at 0.8 mM
Source text: as §1
as §2, with “(See Watson, A. A., Nash, R. J., Wormald, M. R., Harvey, D. J., Dealler, S., Lees, E., Asano, N., Kizu, H., Kato, A., Griffiths, R. C., Cairns, A. J. and Fleet, G. W. J. (1997). Glycosidase-inhibiting pyrrolidine alkaloids from Hyacinthoides non-scripta. Phytochemistry 46 (2): 255-259.)” left out

[2] = test system: Naringinase Penicillium decumbens; experiment: Glycosidase inhibition: Naringinase Penicillium decumbens; assay type: biochemical; details: compounds tested at 0.8 mM
Source text: as §1
as §2, with “(See Watson, A. A., Nash, R. J., Wormald, M. R., Harvey, D. J., Dealler, S., Lees, E., Asano, N., Kizu, H., Kato, A., Griffiths, R. C., Cairns, A. J. and Fleet, G. W. J. (1997). Glycosidase-inhibiting pyrrolidine alkaloids from Hyacinthoides non-scripta. Phytochemistry 46 (2): 255-259.)” left out

[3] = test system: N-acetyl-β-D-glucosaminidase (Jack bean); experiment: Glycosidase inhibition: N-acetyl-β-D-glucosaminidase (Jack bean); assay type: biochemical; details: compounds tested at 0.8 mM
Source text: as §1
as §2, with “(See Watson, A. A., Nash, R. J., Wormald, M. R., Harvey, D. J., Dealler, S., Lees, E., Asano, N., Kizu, H., Kato, A., Griffiths, R. C., Cairns, A. J. and Fleet, G. W. J. (1997). Glycosidase-inhibiting pyrrolidine alkaloids from Hyacinthoides non-scripta. Phytochemistry 46 (2): 255-259.)” left out

rat intestinal sucrase = target: T2, rat intestinal sucrase (Rattus norvegicus, UniProt P23739); experiment: Rat intestinal glycosidases: sucrase; assay type: biochemical; details: rat intestinal brush border membranes
T2 construct: Enzyme activities were prepared from brush border membranes of rat small intestine; from tissue; host or cells: rat small intestine brush border membranes
T2 sequence (P23739 whole entry): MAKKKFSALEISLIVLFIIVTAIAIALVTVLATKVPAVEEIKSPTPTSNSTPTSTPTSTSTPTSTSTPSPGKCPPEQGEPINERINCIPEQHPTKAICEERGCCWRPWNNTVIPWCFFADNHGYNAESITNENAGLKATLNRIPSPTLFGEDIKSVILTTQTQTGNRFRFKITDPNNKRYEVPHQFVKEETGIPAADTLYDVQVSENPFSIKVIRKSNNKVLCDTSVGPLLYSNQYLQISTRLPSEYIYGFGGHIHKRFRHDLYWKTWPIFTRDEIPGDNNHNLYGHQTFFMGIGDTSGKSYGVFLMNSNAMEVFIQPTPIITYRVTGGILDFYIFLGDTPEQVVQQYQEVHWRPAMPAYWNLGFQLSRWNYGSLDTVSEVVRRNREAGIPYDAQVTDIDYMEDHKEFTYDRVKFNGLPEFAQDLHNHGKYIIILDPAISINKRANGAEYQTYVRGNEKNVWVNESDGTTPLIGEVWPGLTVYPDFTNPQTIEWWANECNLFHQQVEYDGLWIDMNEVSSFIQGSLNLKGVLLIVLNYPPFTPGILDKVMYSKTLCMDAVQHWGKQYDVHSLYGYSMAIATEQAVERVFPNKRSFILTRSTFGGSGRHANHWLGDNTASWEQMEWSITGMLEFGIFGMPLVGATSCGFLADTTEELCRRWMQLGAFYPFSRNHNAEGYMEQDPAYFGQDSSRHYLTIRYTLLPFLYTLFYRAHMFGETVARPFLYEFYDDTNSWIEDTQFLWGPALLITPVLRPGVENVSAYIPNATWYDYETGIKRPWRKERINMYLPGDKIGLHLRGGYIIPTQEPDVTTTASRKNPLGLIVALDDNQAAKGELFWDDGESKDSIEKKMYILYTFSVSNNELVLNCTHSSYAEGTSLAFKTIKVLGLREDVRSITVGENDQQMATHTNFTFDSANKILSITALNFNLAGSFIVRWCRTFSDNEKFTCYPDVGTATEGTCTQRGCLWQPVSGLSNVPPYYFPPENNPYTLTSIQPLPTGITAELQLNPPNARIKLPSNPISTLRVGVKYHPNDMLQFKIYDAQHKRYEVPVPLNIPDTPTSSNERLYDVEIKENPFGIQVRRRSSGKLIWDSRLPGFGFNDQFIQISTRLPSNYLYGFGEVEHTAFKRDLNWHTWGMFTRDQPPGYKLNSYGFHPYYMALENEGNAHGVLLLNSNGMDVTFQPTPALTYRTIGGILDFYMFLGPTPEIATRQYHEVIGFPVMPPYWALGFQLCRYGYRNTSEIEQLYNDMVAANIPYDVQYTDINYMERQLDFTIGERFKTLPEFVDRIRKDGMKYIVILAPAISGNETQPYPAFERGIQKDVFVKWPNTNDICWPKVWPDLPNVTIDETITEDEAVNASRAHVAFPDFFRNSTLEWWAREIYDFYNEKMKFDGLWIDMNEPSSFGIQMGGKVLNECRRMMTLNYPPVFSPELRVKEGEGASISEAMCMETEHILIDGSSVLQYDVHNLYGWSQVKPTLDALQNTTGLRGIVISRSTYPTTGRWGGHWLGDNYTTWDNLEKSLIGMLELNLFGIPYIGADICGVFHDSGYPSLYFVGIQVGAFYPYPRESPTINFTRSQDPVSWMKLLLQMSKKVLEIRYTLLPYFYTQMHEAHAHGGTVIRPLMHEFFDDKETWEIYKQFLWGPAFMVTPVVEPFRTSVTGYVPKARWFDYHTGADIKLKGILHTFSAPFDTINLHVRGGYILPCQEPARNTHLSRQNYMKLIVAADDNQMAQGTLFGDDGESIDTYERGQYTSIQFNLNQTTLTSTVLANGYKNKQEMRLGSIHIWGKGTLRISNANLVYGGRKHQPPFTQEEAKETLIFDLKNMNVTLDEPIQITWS
Procedure: (§3) Enzyme activities were prepared from brush border membranes of rat small intestine using disaccharides as substrates as described by Yasuda et al., 2002.

rat intestinal trehalase = rat intestinal trehalase (Rattus norvegicus, UniProt G3V7Q9); experiment: Rat intestinal glycosidases: trehalase; assay type: biochemical; details: rat intestinal brush border membranes
Sequence of rat intestinal trehalase (G3V7Q9 21-553): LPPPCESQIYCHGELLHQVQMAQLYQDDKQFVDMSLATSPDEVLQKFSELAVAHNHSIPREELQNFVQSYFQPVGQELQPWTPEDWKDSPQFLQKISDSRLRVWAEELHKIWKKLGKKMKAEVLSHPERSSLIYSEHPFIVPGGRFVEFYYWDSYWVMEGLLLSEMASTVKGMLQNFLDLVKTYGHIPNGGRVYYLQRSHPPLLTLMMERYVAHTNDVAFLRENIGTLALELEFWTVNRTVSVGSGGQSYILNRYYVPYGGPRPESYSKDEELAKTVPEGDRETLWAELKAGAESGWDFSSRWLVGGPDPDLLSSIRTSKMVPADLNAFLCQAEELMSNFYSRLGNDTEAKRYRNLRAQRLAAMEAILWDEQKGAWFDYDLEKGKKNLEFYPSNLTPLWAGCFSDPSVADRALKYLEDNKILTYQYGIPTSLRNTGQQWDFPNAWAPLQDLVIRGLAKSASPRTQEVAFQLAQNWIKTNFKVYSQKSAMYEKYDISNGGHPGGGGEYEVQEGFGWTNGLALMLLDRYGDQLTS
Procedure: as §3

[4] = Uptake of G2 after oral Gymnema water extract, urine monitoring; assay type: in vivo, human; details: one volunteer
Procedure: In a preliminary experiment on one volunteer to determine if G2 was readily absorbed from the gastrointestinal tract, a water extract of Gymnema leaves obtained commercially containing 7 mg of G2 was drunk and urine monitored for G2 over 4 hours (0-2 hours and 2-4 hours). An internal standard of 1 mg of castanospermine was added to the two samples of urine prior to applying to a cation exchange resin (IR120 in the H^+ form). After washing the resin with copious water, the bound material was displaced wing excess 2M NH4^+ solution and dried for GC-MS analysis. The samples were derivatised using Pierce Tri-Sil to produce trimethyl-silyl-derivatives of the imino sugars and imino sugar acids. GC-MS was carried out on a Perkin Elmer TurboMass Gold mass spectrometer, with a quadrupole ion filter system, which was run at 250° C. constantly during analysis. The detector mass range was set to 100 to 650 amu. The temperature of the transfer line (GC to MS) was held at 250° C. The GC column was a […] fused-silica column (Varian ‘Factor Four’ VF-5 ms column, 25 m×0.25 mm i.d., 0.25 μm phase thickness). The carrier gas (helium) flow rate was 1 ml min-1. G2 gives a characteristic mass spectrum as the tms derivative and was well resolved allowing quantification.

zebrafish larvae = experiment: Acute Toxicity assay in zebrafish larvae; assay type: in vivo; details: 1 mM, 5 mM, 25 mM, 50 mM, 100 mM, 200 mM, 500 mM aqueous dose, 72-96 hpf
Procedure: The compound of formula (G2) was screened for toxicity liabilities using a validated Acute Toxicity assay. Fertilized eggs were obtained from breeding pairs of adult Tuebingen (Tu) zebrafish and arrayed at the 2-4 cell stage of development into 24-well culture plates containing fresh 0.3× Danieau's solution. Plates were incubated at 28.5° C. in a humidity controlled environment prior to assessment. Stock concentrations of Compound were produced by serial dilution in 100% DMSO (final concentration exposed to larvae, 0.5%). Screening was performed at seven doses (1, 5, 25, 50, 100, 200 and 500 mM) alongside VASTox internal controls and vehicle. Dosing of Compound took place at 72 h post fertilisation (hpf; at which point embryogenesis is complete) with visual assessment of lethality and gross morphology at 96 hpf (24 h incubation). […] were exposed to each dose of Compound giving a total of […] assessed (excluding controls). At 96 hpf, larvae were observed and screened using a dissecting stereomicroscope for the presence or absence of: (1) heartbeat (2) circulation; (3) necrosis; and (4) motility (touch response). If all four criteria were satisfied, a larva would be classified as dead. The compound was screened blind.

ddy mice = experiment: Blood glucose levels after maltose loading in ddy mice; assay type: in vivo
Procedure: 7 weeks old ddy mice (weight 30-31 g) were divided into 4 groups (from group 1 to 4). Each group had 5 mouse. All test mouse were fasted for 16 hours for this experiment.
The aim of this experiment was to show if G2 (here coded as BR1) could suppress a hyperglycemia after a meal. Thus, maltose was chosen as the loading sugar as used for Bayer's glucosidase inhibitor Glucobay. Either maltose (2.5 g/kg) or Surose (2.5 g/kg) or starch (1.0 g/kg) can be used but maltose is most popular.
Group 1: Control. Maltose-loading only (without G2 condition). Group 2: oral administration of G2 with maltose (same time). Group 3: intraperitoneal injection of G2 and oral administration of maltose (same time). Group 4: oral administration of G2 30 minutes before maltose-loading. (Glucobay is taken 30 minutes before meals).

Compound | inhibition at 800 µM (α-D-glucosidase (Yeast)) [%] | % inhibition, N-acetyl-β-D-glucosaminidase (Bovine kidney) [1] | % inhibition, β-D-glucosidase (Almond) (β-D-glucosidase (Almond)) | % inhibition, Naringinase Penicillium decumbens [2] | % inhibition, N-acetyl-β-D-glucosaminidase (Jack bean) [3] | also measured
CCCCOC(=O)[C@@H]1[C@@H](O)[C@H](O)[C@@H](O)CN1CCCC [Compound T2, (2S,3R,4R,5S)-Butyl 1-butyl-3,4,5-trihydroxypiperidine-2-carboxylate] | < 50 | – | – | – | – | –
O=C(O)CCN1C[C@H](O)[C@@H](O)[C@H](O)[C@H]1CO [Compound T1] | < 50 | 86.1% | – | – | – | IC50 ([1]; read-out: IC50, N-acetyl-β-D-glucosaminidase (Bovine kidney)): 32.2 µM; IC50 ([1]; read-out: IC50 against mammalian 6-N-acetylglucosaminidase (hexosaminidase)): 32 µM
O=C(O)CN1[C@H](CO)[C@@H](O)[C@H](O)[C@H]1CO [Compound S2, 2-((2R,3R,4R,5R)-3,4-Dihydroxy-2,5-bis(hydroxymethyl)pyrrolidin-1-yl)acetic acid] | < 50 | – | 55% | – | – | –
OC[C@H]1NC[C@H](O)[C@@H](O)[C@@H]1O [DNJ, 1-deoxynojirimycin, reference compound] | 36 | – | – | 20% and 21% | NI (NI = no inhibition) | –
O=C(O)[C@H]1NC[C@H](O)[C@@H](O)[C@@H]1O [Compound G2, 2S,3R,4R,5S-trihydroxypiperidine-2-carboxylic acid] | < 10 | NI (NI = no inhibition) | NI (NI = no inhibition) | NI (NI = no inhibition) | 10% | IC50 (rat intestinal sucrase): > 1 mM; IC50 (rat intestinal trehalase): > 1 mM; G2 recovered in urine ([4]; oral water extract containing 7 mg of G2, within four hours): ~7 mg; G2 in urine ([4]; oral water extract of Gymnema leaves containing 7 mg of G2, urine 0-2 hours and 2-4 hours): detected; acute toxicity to zebrafish larvae (zebrafish larvae): did not cause acute toxicity; absorption into the blood (ddy mice; inferred from p.o. and i.p. curves being almost same): absorbed into the blood very quickly; blood glucose level (hyperglycemia) after maltose loading (ddy mice; p.o. with maltose, i.p. with maltose, or p.o. 30 minutes before maltose (2.5 g/kg)): suppress hyperglycemia
